Legend:
[1] = molecular target: Human immunodeficiency virus type 1 integrase (Human immunodeficiency virus 1) (UniProt Q7ZJM1); test: Inhibitory activity against strand transfer by HIV-1 Integrase at 100 uM
[2] = molecular target: Human immunodeficiency virus type 1 integrase (Human immunodeficiency virus 1) (UniProt Q7ZJM1); test: Inhibitory activity against 3'-processing by HIV-1 Integrase at 100 uM
[3] = molecular target: T1, Human immunodeficiency virus type 1 integrase (Human immunodeficiency virus 1, UniProt Q7ZJM1); test: Inhibitory concentration against 3'-processing by HIV -1 Integrase
T1 sequence (Q7ZJM1 whole entry): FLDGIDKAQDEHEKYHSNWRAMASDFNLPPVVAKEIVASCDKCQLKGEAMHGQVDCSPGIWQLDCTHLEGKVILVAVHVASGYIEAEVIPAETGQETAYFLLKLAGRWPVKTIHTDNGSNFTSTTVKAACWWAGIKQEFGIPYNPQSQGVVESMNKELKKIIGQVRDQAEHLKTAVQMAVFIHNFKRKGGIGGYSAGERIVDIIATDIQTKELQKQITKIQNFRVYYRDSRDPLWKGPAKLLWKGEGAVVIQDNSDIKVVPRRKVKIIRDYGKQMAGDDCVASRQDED

[4] = molecular target: T1, Human immunodeficiency virus type 1 integrase; test: Inhibitory concentration against Strand transfer by HIV -1 Integrase

Sequence of Human immunodeficiency virus type 1 integrase (Human immunodeficiency virus 1) (Q7ZJM1 as listed by the source): as the sequence (Q7ZJM1 whole entry) above

SMILES	inhibition [1]	inhibition [2]	IC50 [3]	IC50 [4]
COc1cc([C@@H]2c3cc4c(c(O)c3C[C@H]3COC(=O)[C@H]32)OCO4)cc(OC)c1O	< 5%	< 5%	–	–
COc1cc(C[C@H]2COC(=O)[C@@H]2Cc2ccc(O)c(OC)c2)ccc1O	< 5%	< 5%	–	–
COc1ccc(C[C@H]2COC[C@@H]2Cc2ccc(O)c(O)c2)cc1OC	< 5%	< 5%	–	–
COc1ccc(C[C@@H](CO)[C@@H](Cc2ccc(O)c(O)c2)C(=O)NCc2ccccc2)cc1OC	< 5%	< 5%	–	–
COc1cc([C@@H]2c3cc4c(cc3C(O)[C@H]3COC(=O)[C@H]23)OCO4)cc(O)c1O (stereo not given in full)	< 5%	< 5%	–	–
O=C1OC[C@H](Cc2ccc3c(c2)OCO3)[C@H]1Cc1cccc(O)c1	< 5%	< 5%	–	–
COc1ccc(C[C@H]2COC(=O)[C@@H]2Cc2ccccc2)cc1OC	< 5%	< 5%	–	–
COc1cc([C@@H]2c3cc4c(c(O)c3C[C@H]3COC(=O)[C@@H]32)OCO4)cc(OC)c1OC	< 5%	< 5%	–	–
COc1cc(C[C@@H](CO)[C@H](CO)Cc2ccc(OC)c(OC)c2)ccc1O	< 5%	< 5%	–	–
COc1cc(C[C@H]2COC[C@@H]2Cc2ccc(O)c(OC)c2)ccc1O	< 5%	< 5%	–	–
COc1cc(C[C@H]2C(=O)CC[C@@H]2Cc2ccc(OC)c(OC)c2)ccc1O	< 5%	< 5%	–	–
COc1cc([C@@H]2c3cc4c(cc3[C@H](O)[C@H]3COC(=O)[C@H]23)OCO4)cc(OC)c1O	< 5%	< 5%	–	–
COc1ccc(C[C@H]2COC(=O)[C@@H]2Cc2ccc(O)c(O)c2)cc1OC	52%	37%	–	–
O=C1OC[C@H](Cc2ccc(O)c(O)c2)[C@H]1Cc1ccc(O)c(O)c1	100%	92%	21.4 µM	5.4 µM
COc1ccc(C[C@@H](CO)[C@H](CO)Cc2ccc(O)c(O)c2)cc1OC	< 5%	< 5%	–	–
COc1ccc(C[C@H]2CCC(=O)[C@@H]2Cc2ccc(O)c(O)c2)cc1OC	< 5%	< 5%	–	–
O=C1OC[C@H](Cc2ccc3c(c2)OCO3)[C@H]1Cc1ccccc1	< 5%	< 5%	–	–
COc1ccc(C[C@H]2COC(=O)[C@@H]2Cc2ccc(O)cc2)cc1OC	< 5%	< 5%	–	–
COc1cc(C[C@H]2C(=O)OC[C@@H]2Cc2ccc(O)c(O)c2)ccc1O	41%	< 5%	–	–
COc1cc(C[C@H]2COC[C@@H]2Cc2ccc(OC)c(OC)c2)ccc1O	< 5%	< 5%	–	–
COc1cc(C[C@H]2C(=O)OC[C@@H]2Cc2ccc(OC)c(OC)c2)ccc1O	< 5%	< 5%	–	–
COc1ccc(C[C@H]2COC(=O)[C@@H]2Cc2cc(O)c(O)c(O)c2)cc1OC	< 5%	< 5%	–	–
COc1cc([C@@H]2c3cc4c(c(O)c3C[C@H]3COC(=O)[C@H]32)OCO4)cc(OC)c1OC	< 5%	< 5%	–	–
COc1cc([C@@H]2c3cc4c(cc3[C@H](O)[C@H]3COC(=O)[C@@H]23)OCO4)cc(OC)c1O	< 5%	< 5%	–	–
COc1cc(C[C@@H](CO)[C@H](CO)Cc2ccc(O)c(OC)c2)ccc1O	< 5%	< 5%	–	–
COc1cc(C[C@@H](C(=O)NCc2ccccc2)[C@H](CO)Cc2ccc(OC)c(OC)c2)ccc1O	< 5%	< 5%	–	–
O=C1OC[C@H](Cc2ccc3c(c2)OCO3)[C@H]1Cc1ccc(O)cc1	< 5%	< 5%	–	–
COc1ccc(C[C@H]2COC(=O)[C@@H]2Cc2cccc(O)c2)cc1OC	< 5%	< 5%	–	–
COc1cc([C@@H]2c3cc4c(c(O)c3C[C@H]3COC(=O)[C@@H]32)OCO4)cc(OC)c1O	< 5%	< 5%	–	–
